pEC50, pIC50: −log10 of the molar value. Like-named read-outs stand apart in the source and are kept apart here.
Assays:
GABAA = test: Safety47 Ion Channel GABAA; type: cell-based; conditions: for pIC50: read-out: RC50 (IC50); for pEC50: read-out: RC50 (EC50)
MAOA = molecular target: T1, MAOA (Homo sapiens, UniProt P21397); test: Safety47 Enzymatic MAOA; type: biochemical; conditions: Inhibitor; for Emax: read-out: Max Response; for pIC50: read-out: RC50 (IC50)
T1 construct: purchased Eurofins Panlab (Safety47 Safety Scan, contract panel)
T1 sequence (P21397 1-527): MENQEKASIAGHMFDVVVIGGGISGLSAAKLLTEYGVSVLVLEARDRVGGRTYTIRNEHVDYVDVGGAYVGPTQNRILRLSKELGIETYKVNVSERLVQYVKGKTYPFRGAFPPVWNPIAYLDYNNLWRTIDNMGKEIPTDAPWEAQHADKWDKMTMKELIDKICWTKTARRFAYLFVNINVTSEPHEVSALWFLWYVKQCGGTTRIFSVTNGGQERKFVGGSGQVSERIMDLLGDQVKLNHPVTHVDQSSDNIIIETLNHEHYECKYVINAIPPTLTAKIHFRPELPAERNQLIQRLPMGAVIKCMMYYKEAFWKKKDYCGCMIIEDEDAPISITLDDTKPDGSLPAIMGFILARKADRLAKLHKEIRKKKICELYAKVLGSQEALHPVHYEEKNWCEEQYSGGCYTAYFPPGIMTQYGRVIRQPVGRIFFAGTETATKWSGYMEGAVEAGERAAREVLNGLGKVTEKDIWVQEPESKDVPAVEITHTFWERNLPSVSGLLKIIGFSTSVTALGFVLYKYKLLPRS

NET = molecular target: T2, NET (Homo sapiens, UniProt P23975); test: Safety47 Transporter NET; type: cell-based; conditions: Blocker; for Emax: read-out: Max Response; for pIC50: read-out: RC50 (IC50)
T2 construct: purchased Eurofins Panlab Safety47 Safety Scan
T2 sequence (P23975 whole entry): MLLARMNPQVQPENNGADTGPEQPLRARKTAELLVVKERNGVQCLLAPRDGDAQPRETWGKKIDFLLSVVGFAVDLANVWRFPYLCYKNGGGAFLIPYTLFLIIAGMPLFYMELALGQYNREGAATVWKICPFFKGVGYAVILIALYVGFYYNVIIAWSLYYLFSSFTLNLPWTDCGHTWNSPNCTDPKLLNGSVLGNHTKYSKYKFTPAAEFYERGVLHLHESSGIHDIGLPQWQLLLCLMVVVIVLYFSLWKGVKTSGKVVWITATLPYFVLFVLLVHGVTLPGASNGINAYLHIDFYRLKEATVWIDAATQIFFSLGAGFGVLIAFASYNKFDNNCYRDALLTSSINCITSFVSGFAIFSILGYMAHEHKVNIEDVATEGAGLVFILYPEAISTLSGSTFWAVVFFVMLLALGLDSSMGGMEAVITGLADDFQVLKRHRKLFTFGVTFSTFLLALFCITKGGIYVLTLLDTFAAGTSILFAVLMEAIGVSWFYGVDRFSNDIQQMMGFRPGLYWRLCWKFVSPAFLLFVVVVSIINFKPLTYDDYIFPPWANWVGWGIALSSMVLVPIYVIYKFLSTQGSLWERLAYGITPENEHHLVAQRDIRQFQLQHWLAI

KvLQT1/minK = molecular target: T3, KvLQT1/minK (Homo sapiens, UniProt P51787); test: Safety47 Ion Channel KvLQT1/minK; type: cell-based; conditions: for Emax: read-out: Max Response; for pIC50: read-out: RC50 (IC50); for pEC50: read-out: RC50 (EC50)
T3 construct: purchased Eurofins Panlab (Safety47 Safety Scan, contract panel)
T3 sequence (P51787 whole entry): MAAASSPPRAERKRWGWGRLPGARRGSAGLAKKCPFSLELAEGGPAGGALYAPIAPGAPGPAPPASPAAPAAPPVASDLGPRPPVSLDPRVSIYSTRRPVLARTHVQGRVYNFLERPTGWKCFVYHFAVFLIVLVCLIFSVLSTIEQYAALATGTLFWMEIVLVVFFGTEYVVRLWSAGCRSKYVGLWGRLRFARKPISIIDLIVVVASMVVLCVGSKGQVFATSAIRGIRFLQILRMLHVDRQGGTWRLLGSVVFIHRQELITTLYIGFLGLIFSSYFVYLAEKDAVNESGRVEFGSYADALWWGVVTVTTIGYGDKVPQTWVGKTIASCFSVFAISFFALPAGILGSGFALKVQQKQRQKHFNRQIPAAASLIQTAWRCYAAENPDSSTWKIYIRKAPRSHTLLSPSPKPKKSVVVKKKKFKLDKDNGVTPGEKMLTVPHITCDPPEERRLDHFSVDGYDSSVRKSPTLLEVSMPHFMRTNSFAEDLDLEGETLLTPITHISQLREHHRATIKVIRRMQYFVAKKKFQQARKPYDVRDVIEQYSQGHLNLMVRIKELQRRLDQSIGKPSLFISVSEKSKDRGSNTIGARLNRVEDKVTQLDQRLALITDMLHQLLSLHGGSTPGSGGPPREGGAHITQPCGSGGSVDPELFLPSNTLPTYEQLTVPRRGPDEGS

AR = molecular target: T4, AR (Homo sapiens, UniProt P10275); test: Safety47 NHR Nuclear Translocation AR; type: cell-based; conditions: for Emax: read-out: Max Response; for pEC50: read-out: RC50 (EC50); for pIC50: read-out: RC50 (IC50)
T4 construct: purchased Eurofins Panlab (Safety47 Safety Scan, contract panel)
T4 sequence (P10275 1-920): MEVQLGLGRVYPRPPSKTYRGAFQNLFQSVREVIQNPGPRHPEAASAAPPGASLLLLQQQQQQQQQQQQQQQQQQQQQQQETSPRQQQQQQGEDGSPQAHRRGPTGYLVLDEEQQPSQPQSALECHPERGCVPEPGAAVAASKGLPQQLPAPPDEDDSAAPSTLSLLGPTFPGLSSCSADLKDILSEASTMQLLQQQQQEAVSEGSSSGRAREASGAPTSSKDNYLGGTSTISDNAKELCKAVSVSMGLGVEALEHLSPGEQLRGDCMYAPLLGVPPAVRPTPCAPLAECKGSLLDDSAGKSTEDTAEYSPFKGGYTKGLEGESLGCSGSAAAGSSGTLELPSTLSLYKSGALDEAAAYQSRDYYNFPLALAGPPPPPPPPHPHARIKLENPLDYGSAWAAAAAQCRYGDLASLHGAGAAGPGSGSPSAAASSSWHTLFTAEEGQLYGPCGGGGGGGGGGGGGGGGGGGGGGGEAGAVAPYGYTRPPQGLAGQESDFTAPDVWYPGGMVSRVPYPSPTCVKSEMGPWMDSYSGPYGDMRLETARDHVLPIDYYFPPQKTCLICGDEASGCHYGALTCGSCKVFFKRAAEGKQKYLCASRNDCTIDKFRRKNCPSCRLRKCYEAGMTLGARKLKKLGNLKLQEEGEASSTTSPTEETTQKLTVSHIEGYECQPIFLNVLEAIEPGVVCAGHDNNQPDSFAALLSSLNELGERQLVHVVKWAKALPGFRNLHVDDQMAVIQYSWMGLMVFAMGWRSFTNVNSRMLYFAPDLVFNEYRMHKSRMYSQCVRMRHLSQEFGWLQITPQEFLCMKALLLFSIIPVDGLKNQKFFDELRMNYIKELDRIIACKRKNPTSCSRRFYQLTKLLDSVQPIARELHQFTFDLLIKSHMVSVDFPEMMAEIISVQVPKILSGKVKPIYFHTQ

PDE4D2 = molecular target: T5, PDE4D2 (Homo sapiens, UniProt Q08499); test: Safety47 Enzymatic PDE4D2; type: biochemical; conditions: Inhibitor; for Emax: read-out: Max Response; for pIC50: read-out: RC50 (IC50)
T5 construct: purchased Eurofins Panlab (Safety47 Safety Scan, contract panel)
T5 sequence (Q08499 303-809 limits assumed): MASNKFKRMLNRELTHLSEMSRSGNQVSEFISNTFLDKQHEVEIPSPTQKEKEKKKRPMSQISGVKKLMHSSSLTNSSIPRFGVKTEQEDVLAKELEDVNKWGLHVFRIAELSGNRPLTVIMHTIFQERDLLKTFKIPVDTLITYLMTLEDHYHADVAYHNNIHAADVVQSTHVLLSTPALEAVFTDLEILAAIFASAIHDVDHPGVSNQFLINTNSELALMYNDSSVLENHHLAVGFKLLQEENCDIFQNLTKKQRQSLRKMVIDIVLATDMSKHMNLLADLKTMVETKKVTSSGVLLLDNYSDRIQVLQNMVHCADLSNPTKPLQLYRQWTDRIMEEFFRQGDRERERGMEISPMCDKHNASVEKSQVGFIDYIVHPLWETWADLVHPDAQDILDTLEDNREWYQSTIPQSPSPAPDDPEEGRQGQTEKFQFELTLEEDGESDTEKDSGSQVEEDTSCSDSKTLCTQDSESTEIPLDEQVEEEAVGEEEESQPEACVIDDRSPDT

HTR1B = molecular target: T6, HTR1B (Homo sapiens, UniProt P28222); test: Safety47 cAMP HTR1B; type: cell-based; conditions: for Emax: read-out: Max Response; for pEC50: read-out: RC50 (EC50); for pIC50: read-out: RC50 (IC50)
T6 construct: purchased Eurofins Panlab (Safety47 Safety Scan, contract panel)
T6 sequence (P28222 whole entry, species assumed): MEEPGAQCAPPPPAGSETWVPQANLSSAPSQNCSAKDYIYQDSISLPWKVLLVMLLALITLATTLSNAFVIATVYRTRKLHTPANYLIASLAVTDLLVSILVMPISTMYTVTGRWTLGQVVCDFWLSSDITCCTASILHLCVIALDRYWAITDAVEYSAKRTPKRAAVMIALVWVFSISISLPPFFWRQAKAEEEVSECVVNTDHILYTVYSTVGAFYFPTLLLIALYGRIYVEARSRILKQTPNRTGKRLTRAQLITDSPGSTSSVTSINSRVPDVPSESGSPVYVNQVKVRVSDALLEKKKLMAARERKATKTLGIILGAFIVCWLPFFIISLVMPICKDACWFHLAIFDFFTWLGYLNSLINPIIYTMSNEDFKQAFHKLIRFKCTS

SERT = molecular target: T7, SERT (Homo sapiens, UniProt P31645); test: Safety47 Transporter SERT; type: cell-based; conditions: Blocker; for Emax: read-out: Max Response; for pIC50: read-out: RC50 (IC50)
T7 construct: purchased Eurofins Panlab Safety47 Safety Scan
T7 sequence (P31645 whole entry): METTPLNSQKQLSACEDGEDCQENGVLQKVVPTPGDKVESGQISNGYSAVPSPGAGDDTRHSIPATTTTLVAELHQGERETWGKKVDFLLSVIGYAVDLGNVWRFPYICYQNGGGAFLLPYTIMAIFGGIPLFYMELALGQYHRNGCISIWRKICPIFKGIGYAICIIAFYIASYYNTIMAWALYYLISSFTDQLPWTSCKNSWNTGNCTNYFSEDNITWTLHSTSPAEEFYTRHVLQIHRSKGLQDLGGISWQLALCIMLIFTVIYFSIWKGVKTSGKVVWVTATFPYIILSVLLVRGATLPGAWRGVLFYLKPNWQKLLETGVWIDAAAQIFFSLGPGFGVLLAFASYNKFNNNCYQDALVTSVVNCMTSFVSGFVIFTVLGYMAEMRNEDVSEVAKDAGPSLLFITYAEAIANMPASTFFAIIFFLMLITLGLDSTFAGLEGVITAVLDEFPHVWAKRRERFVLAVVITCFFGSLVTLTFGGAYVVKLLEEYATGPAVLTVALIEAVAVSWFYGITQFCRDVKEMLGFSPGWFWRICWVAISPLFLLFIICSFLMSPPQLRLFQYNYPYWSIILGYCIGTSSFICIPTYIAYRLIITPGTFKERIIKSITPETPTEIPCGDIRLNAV

OPRD1 = molecular target: T8, OPRD1 (Homo sapiens, UniProt P41143); test: Safety47 cAMP OPRD1; type: cell-based; conditions: for Emax: read-out: Max Response; for pEC50: read-out: RC50 (EC50); for pIC50: read-out: RC50 (IC50)
T8 construct: purchased Eurofins Panlab (Safety47 Safety Scan, contract panel)
T8 sequence (P41143 whole entry, species assumed): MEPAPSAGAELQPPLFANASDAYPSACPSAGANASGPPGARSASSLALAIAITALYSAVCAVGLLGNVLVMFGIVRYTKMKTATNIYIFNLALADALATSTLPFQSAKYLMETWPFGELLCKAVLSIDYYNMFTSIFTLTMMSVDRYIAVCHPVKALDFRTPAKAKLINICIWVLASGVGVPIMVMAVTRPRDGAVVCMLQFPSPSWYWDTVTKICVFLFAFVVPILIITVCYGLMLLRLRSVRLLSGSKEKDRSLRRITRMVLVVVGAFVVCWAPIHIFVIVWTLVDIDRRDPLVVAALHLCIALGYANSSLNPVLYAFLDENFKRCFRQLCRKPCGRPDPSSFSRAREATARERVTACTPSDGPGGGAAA

[1] = molecular target: DCAF7 / phosphorylated TFEB peptide (Ser138, Ser142) (Homo sapiens, UniProt P61962); test: TFEB peptide binding assay with recombinant DCAF7; conditions: DCAF7 preincubated with compound
Chain of DCAF7 / phosphorylated TFEB peptide (Ser138, Ser142) (P61962 whole entry): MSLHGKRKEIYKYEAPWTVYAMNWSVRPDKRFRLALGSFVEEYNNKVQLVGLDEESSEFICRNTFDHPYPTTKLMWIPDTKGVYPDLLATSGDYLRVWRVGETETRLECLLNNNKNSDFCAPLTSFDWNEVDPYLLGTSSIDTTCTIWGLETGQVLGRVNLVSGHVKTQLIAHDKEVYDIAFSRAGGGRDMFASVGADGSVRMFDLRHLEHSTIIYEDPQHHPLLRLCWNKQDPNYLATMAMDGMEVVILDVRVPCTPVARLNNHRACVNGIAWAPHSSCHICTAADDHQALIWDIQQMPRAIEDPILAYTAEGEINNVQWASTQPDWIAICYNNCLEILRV

AChE = molecular target: T9, AChE (Homo sapiens, UniProt P22303); test: Safety47 Enzymatic AChE; type: biochemical; conditions: Inhibitor; for Emax: read-out: Max Response; for pIC50: read-out: RC50 (IC50)
T9 construct: purchased Eurofins Panlab (Safety47 Safety Scan, contract panel)
T9 sequence (P22303 32-614): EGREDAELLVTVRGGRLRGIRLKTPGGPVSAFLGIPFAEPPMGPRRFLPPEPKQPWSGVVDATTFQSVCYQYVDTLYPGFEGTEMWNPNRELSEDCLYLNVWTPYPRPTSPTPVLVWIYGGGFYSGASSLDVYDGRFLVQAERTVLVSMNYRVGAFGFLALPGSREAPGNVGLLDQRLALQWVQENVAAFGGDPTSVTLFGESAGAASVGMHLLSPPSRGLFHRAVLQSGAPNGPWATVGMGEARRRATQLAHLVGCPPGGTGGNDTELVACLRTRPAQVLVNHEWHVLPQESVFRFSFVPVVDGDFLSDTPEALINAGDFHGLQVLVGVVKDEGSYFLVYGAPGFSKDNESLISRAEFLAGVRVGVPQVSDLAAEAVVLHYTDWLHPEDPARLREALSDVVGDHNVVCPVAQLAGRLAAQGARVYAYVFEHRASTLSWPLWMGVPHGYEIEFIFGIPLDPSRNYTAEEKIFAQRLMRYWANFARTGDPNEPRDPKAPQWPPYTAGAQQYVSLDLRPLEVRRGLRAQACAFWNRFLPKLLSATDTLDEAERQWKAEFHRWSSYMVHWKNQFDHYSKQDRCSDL

HTR1A = molecular target: T10, HTR1A (Homo sapiens, UniProt P08908); test: Safety47 cAMP HTR1A; type: cell-based; conditions: for Emax: read-out: Max Response; for pEC50: read-out: RC50 (EC50); for pIC50: read-out: RC50 (IC50)
T10 construct: purchased Eurofins Panlab Safety47 Safety Scan
T10 sequence (P08908 1-422): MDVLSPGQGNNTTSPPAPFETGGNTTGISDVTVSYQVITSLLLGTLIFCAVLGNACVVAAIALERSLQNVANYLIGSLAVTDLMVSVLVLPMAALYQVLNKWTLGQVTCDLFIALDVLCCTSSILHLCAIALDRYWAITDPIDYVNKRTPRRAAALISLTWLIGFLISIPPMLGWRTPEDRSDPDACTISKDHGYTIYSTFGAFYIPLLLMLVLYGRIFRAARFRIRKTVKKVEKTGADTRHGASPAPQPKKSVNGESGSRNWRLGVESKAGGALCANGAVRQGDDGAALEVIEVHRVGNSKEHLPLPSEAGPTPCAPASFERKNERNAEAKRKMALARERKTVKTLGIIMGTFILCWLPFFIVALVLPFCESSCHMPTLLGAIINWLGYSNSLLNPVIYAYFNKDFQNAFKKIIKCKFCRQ

Cl.Fc1cc(Nc2nc(-c3ccncc3)nc3ncccc23)cc2cc[nH]c12 [BC18813, N-(7-fluoro-1H-indol-5-yl)-2-pyridin-4-ylpyrido[2,3-d]pyrimidin-4-amine hydrochloride] was tested, and the “Max Response” value (GABAA; Blocker) was 19.98, the pIC50 (GABAA; Blocker) was under 5.00 and the “Max Response” value (GABAA; Opener) was 0.77. For the same compound, the pEC50 (GABAA; Opener) was under 5.00, the Emax (MAOA) was 22.2% and the pIC50 (MAOA) was under 5.00. It also gave an Emax (NET) of 9.94%, a pIC50 (NET) of under 5.00 and an Emax (KvLQT1/minK; Blocker) of 12.9%. It also gave a pIC50 (KvLQT1/minK; Blocker) of under 5.00, an Emax (KvLQT1/minK; Opener) of 3.89% and a pEC50 (KvLQT1/minK; Opener) of under 5.00. The Emax (AR; Agonist) was 0%, the pEC50 (AR; Agonist) was under 5.00 and the pIC50 (AR; Antagonist) was under 5.00. It also gave an Emax (PDE4D2) of 44.4%, a pIC50 (PDE4D2) of under 5.00 and an Emax (HTR1B; Agonist) of 27.4%. The pEC50 (HTR1B; Agonist) was under 5.00, the Emax (HTR1B; Antagonist) was 0.13% and the pIC50 (HTR1B; Antagonist) was under 5.00. For the same compound, the Emax (SERT) was 0%, the pIC50 (SERT) was under 5.00 and the Emax (OPRD1; Agonist) was 54.8%. For the same compound, the pEC50 (OPRD1; Agonist) was under 5.00, the Emax (OPRD1; Antagonist) was 0% and the pIC50 (OPRD1; Antagonist) was under 5.00. The “In vitro peptide binding” value [1] was “reduced”, the Emax (AChE) was 6.26% and the pIC50 (AChE) was under 5.00. The Emax (HTR1A; Agonist) was 13%, the pEC50 (HTR1A; Agonist) was under 5.00 and the Emax (HTR1A; Antagonist) was 0%. The pIC50 (HTR1A; Antagonist) was under 5.00.

In the case of Cl.c1ccc2c(Nc3ccc4[nH]ccc4c3)nc(-c3ccncc3)nc2c1 [BC18630, N-1H-indol-5-yl-2-pyridin-4-ylquinazolin-4-amine hydrochloride], the “Max Response” value (GABAA; Blocker) was 27.61, the pIC50 (GABAA; Blocker) was under 5.00 and the “Max Response” value (GABAA; Opener) was 0.97. It also gave a pEC50 (GABAA; Opener) of under 5.00, an Emax (MAOA) of 57% and a pIC50 (MAOA) of under 5.00. The Emax (NET) was 0%, the pIC50 (NET) was under 5.00 and the Emax (KvLQT1/minK; Blocker) was 21.4%. For the same compound, the pIC50 (KvLQT1/minK; Blocker) was under 5.00, the Emax (KvLQT1/minK; Opener) was 6.18% and the pEC50 (KvLQT1/minK; Opener) was under 5.00. It also gave an Emax (AR; Agonist) of 0%, a pEC50 (AR; Agonist) of under 5.00 and an Emax (AR; Antagonist) of 15.6%. The pIC50 (AR; Antagonist) was under 5.00, the Emax (PDE4D2) was 52.3% and the pIC50 (PDE4D2) was under 5.00. The Emax (HTR1B; Agonist) was 12.5%, the pEC50 (HTR1B; Agonist) was under 5.00 and the Emax (HTR1B; Antagonist) was 5.74%. It also gave a pIC50 (HTR1B; Antagonist) of under 5.00, an Emax (SERT) of 0% and a pIC50 (SERT) of under 5.00. The Emax (OPRD1; Agonist) was 42.6%, the pEC50 (OPRD1; Agonist) was under 5.00 and the Emax (OPRD1; Antagonist) was 9.94%. For the same compound, the pIC50 (OPRD1; Antagonist) was under 5.00, the “In vitro peptide binding” value [1] was “reduced” and the Emax (AChE) was 21.2%. For the same compound, the pIC50 (AChE) was under 5.00, the Emax (HTR1A; Agonist) was 9.36% and the pEC50 (HTR1A; Agonist) was under 5.00. For the same compound, the Emax (HTR1A; Antagonist) was 5.7% and the pIC50 (HTR1A; Antagonist) was under 5.00.

From PMC12136031 (Science Advances, 2025)
